From patent US12410171B2, “Tropomyosin receptor kinase (TRK) degradation compounds and methods of use” (Cullgen (Shanghai), Inc., priority 2020, dated 2025)

Tested on: KM12 cells
Assay: KM12 cell viability (CellTiter-Glo)
Format: cell-based
Details: Homo sapiens, 72 h; KM12 cell viability, 11-point 3-fold serial dilution, 3 days, CellTiter-Glo; read-out: IC50
Method: KM12 or H358 cells were treated with 1000 nM CPD-053 following an 8-point 3-fold serial dilution for 3 days.
KM12 cells seeded in 96-well plates were treated with heterobifunctional compounds following a 11-point 3-fold serial dilution for 3 days.
KM12, H358, HEL, SU-DHL-1 and other cells were cultured at 37° C. with 5% CO2 in RPMI 1640 Medium supplemented with 10% fetal bovine serum. Cells were authenticated using the short tandem repeat (STR) assays. Mycoplasma test results were negative. Stable cell lines were established by lentivirus transduction, selected and maintained in medium containing 1 μg/mL puromycin (Beyotime Biotechnology).
Cells were seeded at a density of 5000 cells per well in 96-well assay plates and treated with test compounds following a 12-point 2-fold serial dilution or a 8-point 3-fold dilution, or 11-point 3-fold serial dilution. Three days later, cell viability was determined using the CellTiter-Glo assay kit (Promega) according to the manufacturer's instructions. The dose-response curves were determined and IC50 values were calculated using the GraphPad Prism software following a nonlinear regression (least squares fit) method.

Row | Compound | IC50
1 | NC(=O)C1CCN(c2cc(CN3CCN(C(=O)CCOCCOCCOCCOCCOCCNc4cccc5c4C(=O)N(C4CCC(=O)NC4=O)C5=O)CC3)ccc2NC(=O)c2coc(N3CCOCC3)n2)CC1 (stereo not shown) [CPD-489, N-(2-(4-carbamoylpiperidin-1-yl)-4-((4-(1-((2-(2,6-dioxopiperidin-3-yl)-1,3-dioxoisoindolin-4-yl)amino)-3,6,9,12,15-pentaoxaoctadecan-18-oyl)piperazin-1-yl)methyl)phenyl)-2-morpholinooxazole-4-carboxamide] | 0.141 µM
2 | Cc1ncsc1-c1ccc(CNC(=O)[C@@H]2C[C@@H](O)CN2C(=O)[C@@H](NC(=O)CCC(=O)N2CCN(Cc3ccc(NC(=O)c4coc(N5CCOCC5)n4)c(N4CCC(C(N)=O)CC4)c3)CC2)C(C)(C)C)cc1 [CPD-490, N-(2-(4-carbamoylpiperidin-1-yl)-4-((4-(4-(((S)-1-((2S,4R)-4-hydroxy-2-((4-(4-methylthiazol-5-yl)benzyl)carbamoyl)pyrrolidin-1-yl)-3,3-dimethyl-1-oxobutan-2-yl)amino)-4-oxobutanoyl)piperazin-1-yl)methyl)phenyl)-2-morpholinooxazole-4-carboxamide] | 2.8 µM
3 | Cc1ncsc1-c1ccc(CNC(=O)[C@@H]2C[C@@H](O)CN2C(=O)[C@@H](NC(=O)CCCCC(=O)N2CCN(Cc3ccc(NC(=O)c4coc(N5CCOCC5)n4)c(N4CCC(C(N)=O)CC4)c3)CC2)C(C)(C)C)cc1 [CPD-491, N-(2-(4-carbamoylpiperidin-1-yl)-4-((4-(6-(((S)-1-((2S,4R)-4-hydroxy-2-((4-(4-methylthiazol-5-yl)benzyl)carbamoyl)pyrrolidin-1-yl)-3,3-dimethyl-1-oxobutan-2-yl)amino)-6-oxohexanoyl)piperazin-1-yl)methyl)phenyl)-2-morpholinooxazole-4-carboxamide] | 3.7 µM
4 | Cc1ncsc1-c1ccc(CNC(=O)[C@@H]2C[C@@H](O)CN2C(=O)[C@@H](NC(=O)CCCCCCC(=O)N2CCN(Cc3ccc(NC(=O)c4coc(N5CCOCC5)n4)c(N4CCC(C(N)=O)CC4)c3)CC2)C(C)(C)C)cc1 [CPD-492, N-(2-(4-carbamoylpiperidin-1-yl)-4-((4-(8-(((S)-1-((2S,4R)-4-hydroxy-2-((4-(4-methylthiazol-5-yl)benzyl)carbamoyl)pyrrolidin-1-yl)-3,3-dimethyl-1-oxobutan-2-yl)amino)-8-oxooctanoyl)piperazin-1-yl)methyl)phenyl)-2-morpholinooxazole-4-carboxamide] | 0.178 µM
5 | Cc1ncsc1-c1ccc(CNC(=O)[C@@H]2C[C@@H](O)CN2C(=O)[C@@H](NC(=O)CCOCCC(=O)N2CCN(Cc3ccc(NC(=O)c4coc(N5CCOCC5)n4)c(N4CCC(C(N)=O)CC4)c3)CC2)C(C)(C)C)cc1 [CPD-494] | > 10 µM
6 | Cc1ncsc1-c1ccc(CNC(=O)[C@@H]2C[C@@H](O)CN2C(=O)[C@@H](NC(=O)CCOCCOCCC(=O)N2CCN(Cc3ccc(NC(=O)c4coc(N5CCOCC5)n4)c(N4CCC(C(N)=O)CC4)c3)CC2)C(C)(C)C)cc1 [CPD-495] | > 10 µM
7 | Cc1ncsc1-c1ccc(CNC(=O)[C@@H]2C[C@@H](O)CN2C(=O)[C@@H](NC(=O)CCOCCOCCOCCC(=O)N2CCN(Cc3ccc(NC(=O)c4coc(N5CCOCC5)n4)c(N4CCC(C(N)=O)CC4)c3)CC2)C(C)(C)C)cc1 [CPD-496, N-(2-(4-carbamoylpiperidin-1-yl)-4-((4-((S)-15-((2S,4R)-4-hydroxy-2-((4-(4-methylthiazol-5-yl)benzyl)carbamoyl)pyrrolidine-1-carbonyl)-16,16-dimethyl-13-oxo-4,7,10-trioxa-14-azaheptadecanoyl)piperazin-1-yl)methyl)phenyl)-2-morpholinooxazole-4-carboxamide] | 8.76 µM
